Experimental data from US9012655B2, “Antimicrobial/adjuvant compounds and methods” (Denouamed, Inc., priority 2011, dated 2015).
Converted amounts (≈) assume the structure as drawn. Read-outs that look alike come from different tables or passages of the source.

Experiments:
Experiment in all cases: MIC panel of challenge pathogens (CLSI)
Type in all cases: cell-based
Bacillus cereus NCTC6349 = tested on: Bacillus cereus NCTC6349
Experimental: (§1) The inocula for each bacterial strain were prepared by picking 5-10 distinct colonies from the culture plates and suspending them in the appropriate broth as per Clinical and Laboratory Standards Institute (CLSI) guidelines M07-A8, M24-A or M11-A7 as appropriate. The inoculum was resuspended by vigorous shaking on a vortex mixer for 15 s. The turbidity was then adjusted to McFarland standard 0.5 ([…]). The inoculum was further diluted in the appropriate media for MIC tests to give a final inoculum in each well of 2-8×10^5 CFU/ml. MICs were tested in the appropriate broth in accordance with the appropriate CLSI guidelines.
(§2) A stock solution of each compound was prepared at a concentration of 1.28 g/L in DMSO. The stock was further diluted in the appropriate media to give a top starting concentration of 128 mg/L in the assay. 100 μL of the appropriate media, as per CLSI guidelines, was dispensed into each well in columns 2-12. 200 μL of the each compound solution (at 256 mg/L) was dispensed into each well in column 1. 100 μL aliquots were pipetted from column 1 wells and dispensed into column 2 with a multichannel pipette (±2% coefficient of variation) thus diluting two-fold. 100 μL samples were then pipetted from column 2 wells and dispensed into column 3. The process was repeated through to column 10. The final 100 μL of diluted drug from column 10 was then discarded. Row 11 acted as a positive control (no compound, but organisms added), Row 12 acted as a negative control (no compound, and no organisms added).
(§3) 100 μL of the appropriate inoculum suspension in the appropriate media, as per CLSI guidelines, was added to the appropriate wells. […] All plates were incubated in the dark under aerobic or anaerobic conditions at 30-37° C. for 24-48 hours, according to the appropriate CLSI guideline. Plates were read visually 24-48 hours post inoculation. Endpoints of 100% inhibition were determined (CLSI interpretation endpoints following visual examination).
(§4) MIC50, MIC80, and 100% inhibition results are reported below in μg/mL in the following Tables, indicating each compound tested against a given species and strain: […]

[1] = tested on: Enterococcus faecalis ATCC29212
Experimental: as §1, §2, §3, §4

[2] = tested on: Enterococcus faecalis ATCC51299
Experimental: as §1, §2, §3, §4

[3] = tested on: Enterococcus faecium ATCC700221
Experimental: as §1, §2, §3, §4

[4] = tested on: Staphylococcus aureus ATCC43300
Experimental: as §1, §2, §3, §4

[5] = tested on: Staphylococcus aureus AUR131 007035
Experimental: as §1, §2, §3, §4

[6] = tested on: Staphylococcus aureus EUP MRSA002
Experimental: as §1, §2, §3, §4

[7] = tested on: Staphylococcus aureus NRS382
Experimental: as §1, §2, §3, §4

[8] = Bacillus cereus NCTC6349, read-out: 100% inhibition
[9] = Bacillus cereus NCTC6349, read-out: MIC50 (50%)
[10] = Bacillus cereus NCTC6349, read-out: MIC80 (80%)
[11] = Enterococcus faecalis ATCC29212, read-out: 100% inhibition
[12] = Enterococcus faecalis ATCC29212, read-out: MIC50 (50%)
[13] = Enterococcus faecalis ATCC29212, read-out: MIC80 (80%)
[14] = Enterococcus faecalis ATCC51299, read-out: 100% inhibition
[15] = Enterococcus faecalis ATCC51299, read-out: MIC50 (50%)
[16] = Enterococcus faecalis ATCC51299, read-out: MIC80 (80%)
[17] = Enterococcus faecium ATCC700221, read-out: 100% inhibition
[18] = Enterococcus faecium ATCC700221, read-out: MIC50 (50%)
[19] = Enterococcus faecium ATCC700221, read-out: MIC80 (80%)
[20] = Staphylococcus aureus ATCC43300, read-out: 100% inhibition
[21] = Staphylococcus aureus ATCC43300, read-out: MIC50 (50%)
[22] = Staphylococcus aureus ATCC43300, read-out: MIC80 (80%)
[23] = AUR131007035, Staphylococcus aureus AUR131 007035, read-out: 100% inhibition
[24] = AUR131007035, Staphylococcus aureus AUR131 007035, read-out: MIC50 (50%)
[25] = AUR131007035, Staphylococcus aureus AUR131 007035, read-out: MIC80 (80%)
[26] = EUPMRSA002, Staphylococcus aureus EUP MRSA002, read-out: 100% inhibition
[27] = EUPMRSA002, Staphylococcus aureus EUP MRSA002, read-out: MIC50 (50%)
[28] = EUPMRSA002, Staphylococcus aureus EUP MRSA002, read-out: MIC80 (80%)
[29] = Staphylococcus aureus NRS382, read-out: 100% inhibition
[30] = Staphylococcus aureus NRS382, read-out: MIC50 (50%)
[31] = Staphylococcus aureus NRS382, read-out: MIC80 (80%)

CN[C@H](CC(C)C)C(=O)N[C@H]1C(=O)N[C@@H](CC(N)=O)C(=O)N[C@H]2C(=O)N[C@H]3C(=O)N[C@H](C(=O)N[C@H](C(=O)O)c4cc(O)cc(O)c4-c4cc3ccc4O)[C@H](O)c3ccc(c(Cl)c3)Oc3cc2cc(c3O[C@@H]2O[C@H](CO)[C@@H](O)[C@H](O)[C@H]2O[C@H]2C[C@](C)(N)[C@H](O)[C@H](C)O2)Oc2ccc(cc2Cl)[C@H]1O [Vancomycin, reference compound]
MIC (Bacillus cereus NCTC6349; Bacillus cereus, NCTC6349, read-out: 100% inhibition): 2 mg/L (≈ 1.38 µM) | MIC50 (Bacillus cereus NCTC6349; Bacillus cereus, NCTC6349, read-out: MIC50 (50%)): 1 mg/L (≈ 0.69 µM) | MIC80 (Bacillus cereus NCTC6349; Bacillus cereus, NCTC6349, read-out: MIC80 (80%)): 2 mg/L (≈ 1.38 µM) | MIC ([1]; Enterococcus faecalis, ATCC29212, read-out: 100% inhibition): 4 mg/L (≈ 2.76 µM) | MIC50 ([1]; Enterococcus faecalis, ATCC29212, read-out: MIC50 (50%)): 4 mg/L (≈ 2.76 µM) | MIC80 ([1]; Enterococcus faecalis, ATCC29212, read-out: MIC80 (80%)): 4 mg/L (≈ 2.76 µM) | MIC ([2]; Enterococcus faecalis, ATCC51299, read-out: 100% inhibition): > 16 mg/L | MIC50 ([2]; Enterococcus faecalis, ATCC51299, read-out: MIC50 (50%)): > 16 mg/L | MIC80 ([2]; Enterococcus faecalis, ATCC51299, read-out: MIC80 (80%)): > 16 mg/L | MIC ([3]; Enterococcus faecium, ATCC700221, read-out: 100% inhibition): > 16 mg/L | MIC50 ([3]; Enterococcus faecium, ATCC700221, read-out: MIC50 (50%)): > 16 mg/L | MIC80 ([3]; Enterococcus faecium, ATCC700221, read-out: MIC80 (80%)): > 16 mg/L | MIC ([4]; Staphylococcus aureus, ATCC43300, read-out: 100% inhibition): 0.5 mg/L (≈ 0.345 µM) | MIC50 ([4]; Staphylococcus aureus, ATCC43300, read-out: MIC50 (50%)): 0.5 mg/L (≈ 0.345 µM) | MIC80 ([4]; Staphylococcus aureus, ATCC43300, read-out: MIC80 (80%)): 0.5 mg/L (≈ 0.345 µM) | MIC ([5]; Staphylococcus aureus, AUR131007035, read-out: 100% inhibition): 0.5 mg/L (≈ 0.345 µM) | MIC50 ([5]; Staphylococcus aureus, AUR131007035, read-out: MIC50 (50%)): 0.5 mg/L (≈ 0.345 µM) | MIC80 ([5]; Staphylococcus aureus, AUR131007035, read-out: MIC80 (80%)): 0.5 mg/L (≈ 0.345 µM) | MIC ([6]; Staphylococcus aureus, EUPMRSA002, read-out: 100% inhibition): 0.5 mg/L (≈ 0.345 µM) | MIC50 ([6]; Staphylococcus aureus, EUPMRSA002, read-out: MIC50 (50%)): 0.5 mg/L (≈ 0.345 µM) | MIC80 ([6]; Staphylococcus aureus, EUPMRSA002, read-out: MIC80 (80%)): 0.5 mg/L (≈ 0.345 µM) | MIC ([7]; Staphylococcus aureus, NRS382, read-out: 100% inhibition): 1 mg/L (≈ 0.69 µM) | MIC50 ([7]; Staphylococcus aureus, NRS382, read-out: MIC50 (50%)): 1 mg/L (≈ 0.69 µM) | MIC80 ([7]; Staphylococcus aureus, NRS382, read-out: MIC80 (80%)): 1 mg/L (≈ 0.69 µM)

CCCCc1cccc(-c2cc(-c3nnn[nH]3)sc2Cc2ccc(Cl)cc2)c1 [DNM0606, 5-(4-(3-Butylphenyl)-5-(4-chlorobenzyl)thiophen-2-yl)-1H-tetrazole]
MIC (Bacillus cereus NCTC6349; [8]): 0.5 mg/L (≈ 1.22 µM) | MIC50 (Bacillus cereus NCTC6349; [9]): 0.5 mg/L (≈ 1.22 µM) | MIC80 (Bacillus cereus NCTC6349; [10]): 0.5 mg/L (≈ 1.22 µM) | MIC [1, 11]: 1 mg/L (≈ 2.45 µM) | MIC50 [1, 12]: 1 mg/L (≈ 2.45 µM) | MIC80 [1, 13]: 1 mg/L (≈ 2.45 µM) | MIC [2, 14]: 1 mg/L (≈ 2.45 µM) | MIC50 [2, 15]: 1 mg/L (≈ 2.45 µM) | MIC80 [2, 16]: 1 mg/L (≈ 2.45 µM) | MIC [3, 17]: 1 mg/L (≈ 2.45 µM) | MIC50 [3, 18]: 1 mg/L (≈ 2.45 µM) | MIC80 [3, 19]: 1 mg/L (≈ 2.45 µM) | MIC [4, 20]: ≤ 0.25 mg/L | MIC50 [4, 21]: ≤ 0.25 mg/L | MIC80 [4, 22]: ≤ 0.25 mg/L | MIC [5, 23]: 0.5 mg/L (≈ 1.22 µM) | MIC50 [5, 24]: 0.5 mg/L (≈ 1.22 µM) | MIC80 [5, 25]: 0.5 mg/L (≈ 1.22 µM) | MIC [6, 26]: 0.5 mg/L (≈ 1.22 µM) | MIC50 [6, 27]: 0.5 mg/L (≈ 1.22 µM) | MIC80 [6, 28]: 0.5 mg/L (≈ 1.22 µM) | MIC [7, 29]: 0.5 mg/L (≈ 1.22 µM) | MIC50 [7, 30]: 0.5 mg/L (≈ 1.22 µM) | MIC80 [7, 31]: 0.5 mg/L (≈ 1.22 µM)

Clc1ccc(Cc2sc(-c3nnn[nH]3)cc2-c2cccc(CC3CCCC3)c2)cc1 [DNM0610, 5-(5-(4-Chlorobenzyl)-4-(3-(cyclopentylmethyl)phenyl)thiophen-2-yl)-1H-tetrazole]
MIC (Bacillus cereus NCTC6349; [8]): 0.5 mg/L (≈ 1.15 µM) | MIC50 (Bacillus cereus NCTC6349; [9]): 0.5 mg/L (≈ 1.15 µM) | MIC80 (Bacillus cereus NCTC6349; [10]): 0.5 mg/L (≈ 1.15 µM) | MIC [1, 11]: 1 mg/L (≈ 2.3 µM) | MIC50 [1, 12]: 1 mg/L (≈ 2.3 µM) | MIC80 [1, 13]: 1 mg/L (≈ 2.3 µM) | MIC [2, 14]: 1 mg/L (≈ 2.3 µM) | MIC50 [2, 15]: 1 mg/L (≈ 2.3 µM) | MIC80 [2, 16]: 1 mg/L (≈ 2.3 µM) | MIC [3, 17]: 0.5 mg/L (≈ 1.15 µM) | MIC50 [3, 18]: 0.5 mg/L (≈ 1.15 µM) | MIC80 [3, 19]: 0.5 mg/L (≈ 1.15 µM) | MIC [4, 20]: 0.5 mg/L (≈ 1.15 µM) | MIC50 [4, 21]: 0.5 mg/L (≈ 1.15 µM) | MIC80 [4, 22]: 0.5 mg/L (≈ 1.15 µM) | MIC [5, 23]: 0.5 mg/L (≈ 1.15 µM) | MIC50 [5, 24]: 0.5 mg/L (≈ 1.15 µM) | MIC80 [5, 25]: 0.5 mg/L (≈ 1.15 µM) | MIC [6, 26]: 0.5 mg/L (≈ 1.15 µM) | MIC50 [6, 27]: 0.5 mg/L (≈ 1.15 µM) | MIC80 [6, 28]: 0.5 mg/L (≈ 1.15 µM) | MIC [7, 29]: 0.5 mg/L (≈ 1.15 µM) | MIC50 [7, 30]: 0.5 mg/L (≈ 1.15 µM) | MIC80 [7, 31]: 0.5 mg/L (≈ 1.15 µM)

CC(C)c1cc(Cl)ccc1-c1cc(C(=O)O)sc1-c1ccc(Cl)cc1C(C)C [DNM0566, 4,5-Bis(4-chloro-2-isopropylphenyl)thiophene-2-carboxylic acid]
MIC (Bacillus cereus NCTC6349; [8]): ≤ 0.25 mg/L | MIC50 (Bacillus cereus NCTC6349; [9]): ≤ 0.25 mg/L | MIC80 (Bacillus cereus NCTC6349; [10]): ≤ 0.25 mg/L | MIC [1, 11]: 0.5 mg/L (≈ 1.15 µM) | MIC50 [1, 12]: 0.5 mg/L (≈ 1.15 µM) | MIC80 [1, 13]: 0.5 mg/L (≈ 1.15 µM) | MIC [2, 14]: 0.5 mg/L (≈ 1.15 µM) | MIC50 [2, 15]: 0.5 mg/L (≈ 1.15 µM) | MIC80 [2, 16]: 0.5 mg/L (≈ 1.15 µM) | MIC [3, 17]: 0.5 mg/L (≈ 1.15 µM) | MIC50 [3, 18]: 0.25 mg/L (≈ 0.577 µM) | MIC80 [3, 19]: 0.25 mg/L (≈ 0.577 µM) | MIC [4, 20]: ≤ 0.25 mg/L | MIC50 [4, 21]: ≤ 0.25 mg/L | MIC80 [4, 22]: ≤ 0.25 mg/L | MIC [5, 23]: ≤ 0.25 mg/L | MIC50 [5, 24]: ≤ 0.25 mg/L | MIC80 [5, 25]: ≤ 0.25 mg/L | MIC [6, 26]: ≤ 0.25 mg/L | MIC50 [6, 27]: ≤ 0.25 mg/L | MIC80 [6, 28]: ≤ 0.25 mg/L | MIC [7, 29]: 0.5 mg/L (≈ 1.15 µM) | MIC50 [7, 30]: 0.5 mg/L (≈ 1.15 µM) | MIC80 [7, 31]: 0.5 mg/L (≈ 1.15 µM)
